According to patent publication US20240116985A1, “STAPLED PEPTIDES AND METHODS THEREOF” (priority 2020, published 2024):
Like-named read-outs stand apart in the source and are kept apart here.

Biological target: T1, full-length beta-Catenin (Uniprot ID P35222) (Homo sapiens, UniProt P35222)
T1 construct: 10 nM full-length beta-Catenin (Uniprot ID P35222)
T1 sequence (P35222 1-781): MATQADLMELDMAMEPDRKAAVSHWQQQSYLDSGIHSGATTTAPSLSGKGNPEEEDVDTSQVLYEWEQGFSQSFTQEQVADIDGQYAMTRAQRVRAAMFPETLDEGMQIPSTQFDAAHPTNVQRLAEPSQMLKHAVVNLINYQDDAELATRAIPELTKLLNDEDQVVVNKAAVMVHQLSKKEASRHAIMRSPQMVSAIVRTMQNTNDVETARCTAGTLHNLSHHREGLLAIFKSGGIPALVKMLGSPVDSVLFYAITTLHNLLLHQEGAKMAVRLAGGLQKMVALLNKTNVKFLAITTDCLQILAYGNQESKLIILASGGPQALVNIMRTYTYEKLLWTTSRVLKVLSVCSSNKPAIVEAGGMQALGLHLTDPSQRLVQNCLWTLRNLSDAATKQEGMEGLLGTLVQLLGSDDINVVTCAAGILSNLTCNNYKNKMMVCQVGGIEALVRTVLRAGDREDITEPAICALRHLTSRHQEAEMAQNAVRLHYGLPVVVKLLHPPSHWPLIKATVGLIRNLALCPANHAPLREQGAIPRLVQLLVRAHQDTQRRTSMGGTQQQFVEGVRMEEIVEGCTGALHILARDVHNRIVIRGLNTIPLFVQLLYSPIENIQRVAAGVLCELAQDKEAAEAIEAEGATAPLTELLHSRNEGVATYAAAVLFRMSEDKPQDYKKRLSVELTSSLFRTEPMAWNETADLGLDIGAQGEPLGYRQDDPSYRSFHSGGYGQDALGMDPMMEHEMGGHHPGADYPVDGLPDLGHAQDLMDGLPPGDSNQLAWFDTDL
Test: Fluorescence polarization IC50 (beta-catenin / 5FAM-TCF4 10-53 competition)
Assay type: binding
Conditions: fluorescence polarization

| SMILES | IC50 (read-out: beta-Catenin FP IC50) [nM] | IC50 (beta-Catenin FP IC50 (nM)) [nM] |
| --- | --- | --- |
| CC(C)C[C@@H]1NC(=O)[C@H](Cc2ccccc2)NC(=O)[C@H](C)NC(=O)[C@H](C)NC(=O)[C@H](Cc2cccc(C(=O)O)c2)NC(=O)[C@H](CC(=O)O)NC(=O)C2(CCCC=CCCCOC(=O)N3CC[C@@](C(=O)N[C@@H](Cc4ccccc4Cl)C(=O)N[C@@H](Cc4csc5ccccc45)C(=O)N[C@@H](C)C(N)=O)(C3)NC1=O)CCCC=CC[C@]1(CCCN1C(=O)OC1CCCCC1)C(=O)N[C@@H](CC(=O)O)C(=O)N[C@@H](CC(C)(C)C)C(=O)N2 (stereo partly drawn) [I-2325, CO2Hex-PL3-Asp-Npg-B5-Asp-3COOHF-Ala-Ala-Phe-Leu-PyrS2-2C1F-BztA-Ala-NH2] | 1350 |  |
| C[C@@H]1NC(=O)[C@H](C)NC(=O)[C@H](CC(=O)O)NC(=O)[C@H](CC(=O)O)NC(=O)C2(CCCC=CCCCOC(=O)N3CC[C@@](C(=O)N[C@@H](Cc4ccsc4)C(=O)N[C@@H](Cc4csc5ccccc45)C(=O)N[C@@H](Cc4c[nH]cn4)C(N)=O)(C3)NC(=O)[C@H](CCC(N)=O)NC(=O)[C@H](Cc3ccccc3)NC1=O)CCCC=CC[C@]1(CCCN1C(=O)Oc1ccccc1)C(=O)N[C@@H](CC(=O)O)C(=O)N[C@@H](CC(C)(C)C)C(=O)N2 (stereo partly drawn) [I-2326, CO2Ph-PL3-Asp-Npg-B5-Asp-Asp-Ala-Ala-Phe-Gln-PyrS2-3Thi-BztA-His-NH2] |  | 185 |
| CC(C)C[C@@H]1NC(=O)[C@H](Cc2ccccc2)NC(=O)[C@H](C)NC(=O)[C@H](C)NC(=O)[C@H](Cc2cccc(C(=O)O)c2)NC(=O)[C@H](CC(=O)O)NC(=O)C2(CCCC=CCCCOC(=O)N3CC[C@@](C(=O)N[C@@H](Cc4ccccc4Cl)C(=O)N[C@@H](Cc4csc5ccccc45)C(=O)N[C@@H](C)C(N)=O)(C3)NC1=O)CCCC=CC[C@]1(CCCN1C(=O)Oc1ccccc1)C(=O)N[C@@H](CC(=O)O)C(=O)N[C@@H](CC(C)(C)C)C(=O)N2 (stereo partly drawn) [I-2327, CO2Ph-PL3-Asp-Npg-B5-Asp-3COOHF-Ala-Ala-Phe-Leu-PyrS2-2C1F-BztA-Ala-NH2] |  | 376 |
| CC(=O)N1CCC[C@]12CC=CCCCC1(CCCC=CCCCOC(=O)N3CC[C@@](C(=O)N[C@@H](Cc4ccsc4)C(=O)N[C@@H](Cc4csc5ccccc45)C(=O)N[C@@H](CCC(N)=O)C(N)=O)(C3)NC(=O)[C@H](CC(N)=O)NC(=O)[C@H](Cc3ccccc3)NC(=O)[C@H](C)NC(=O)[C@H](C)NC(=O)[C@H](CC(=O)O)NC(=O)[C@H](CC(=O)O)NC1=O)NC(=O)[C@H](CC(C)(C)C)NC(=O)[C@H](Cn1cc(CC(C)(C)C(=O)O)nn1)NC2=O (stereo partly drawn) [I-2329, Ac-PL3-[CH2CMe2CO2H]TriAzDap-Npg-B5-Asp-Asp-Ala-Ala-Phe-Asn-PyrS2-3Thi-BztA-Gln-NH2] | 3800 |  |
| CC(=O)N1CCC[C@]12CC=CCCCC1(CCCC=CCCCOC(=O)N3CC[C@@](C(=O)N[C@@H](Cc4ccsc4)C(=O)N[C@@H](Cc4csc5ccccc45)C(=O)N[C@@H](CCC(N)=O)C(N)=O)(C3)NC(=O)[C@H](CC(N)=O)NC(=O)[C@H](Cc3ccccc3)NC(=O)[C@H](C)NC(=O)[C@H](C)NC(=O)[C@H](Cc3cccc(C(=O)O)c3)NC(=O)[C@H](CC(N)=O)NC1=O)NC(=O)[C@H](CC(C)(C)C)NC(=O)[C@H](CC(=O)O)NC2=O (stereo partly drawn) [I-2335, Ac-PL3-Asp-Npg-B5-Asn-3COOHF-Ala-Ala-Phe-Asn-PyrS2-3Thi-BztA-Gln-NH2] | 7 |  |
| CC(=O)N1CCC[C@]12CC=CCCCC1(CCCC=CCCCOC(=O)N3CC[C@@](C(=O)N[C@@H](Cc4ccsc4)C(=O)N[C@@H](Cc4csc5ccccc45)C(=O)N[C@@H](Cc4c[nH]cn4)C(N)=O)(C3)NC(=O)[C@H]([C@@H](C)O)NC(=O)[C@H](Cc3ccccc3)NC(=O)[C@H](C)NC(=O)[C@H](C)NC(=O)[C@H]([C@@H](C)O)NC(=O)[C@H](CC(N)=O)NC1=O)NC(=O)[C@H](CC(C)(C)C)NC(=O)[C@H](CC(=O)O)NC2=O (stereo partly drawn) [I-2337, Ac-PL3-Asp-Npg-B5-Asn-Thr-Ala-Ala-Phe-Thr-PyrS2-3Thi-BztA-His-NH2] | 311 |  |

The next lines start with results.

| IC50 (read-out: beta-Catenin FP IC50) [nM] | SMILES | IC50 (beta-Catenin FP IC50 (nM)) [nM] |
| --- | --- | --- |
| 3860 | CC(=O)N1CCC[C@]12CC=CCCCC1(CCCC=CCCCOC(=O)N3CC[C@@](C(=O)N[C@@H](Cc4ccsc4)C(=O)N[C@@H](Cc4csc5ccccc45)C(=O)N[C@@H](CCC(N)=O)C(N)=O)(C3)NC(=O)[C@H](CC(N)=O)NC(=O)[C@H](Cc3ccccc3)NC(=O)[C@H](C)NC(=O)[C@H](C)NC(=O)[C@H](CC(=O)O)NC(=O)[C@H](CC(=O)O)NC1=O)NC(=O)[C@H](CC(C)(C)C)NC(=O)[C@H](Cn1cc(C(C)(C)C(=O)O)nn1)NC2=O (stereo partly drawn) [I-2330, Ac-PL3-[CMe2CO2H]TriAzDap-Npg-B5-Asp-Asp-Ala-Ala-Phe-Asn-PyrS2-3Thi-BztA-Gln-NH2] |  |
| 656 | CC(=O)N1CCC[C@]12CC=CCCCC1(CCCC=CCCCOC(=O)N3CC[C@@](C(=O)N[C@@H](Cc4ccsc4)C(=O)N[C@@H](Cc4csc5ccccc45)C(=O)N[C@@H](C)C(N)=O)(C3)NC(=O)[C@H]([C@@H](C)O)NC(=O)[C@H](Cc3ccccc3)NC(=O)[C@H](C)NC(=O)[C@H](C)NC(=O)[C@H]([C@@H](C)O)NC(=O)[C@H](CC(N)=O)NC1=O)NC(=O)[C@H](CC(C)(C)C)NC(=O)[C@H](CC(=O)O)NC2=O (stereo partly drawn) [I-2334, Ac-PL3-Asp-Npg-B5-Asn-Thr-Ala-Ala-Phe-Thr-PyrS2-3Thi-BztA-Ala-NH2] |  |
| 2820 | CC(=O)N1CCC[C@]12CC=CCCCC1(CCCC=CCCCOC(=O)N3CC[C@@](C(=O)N[C@@H](Cc4ccsc4)C(=O)N[C@@H](Cc4csc5ccccc45)C(=O)N[C@@H](CCC(N)=O)C(N)=O)(C3)NC(=O)[C@H](CC(N)=O)NC(=O)[C@H](Cc3ccccc3)NC(=O)C(C)(C)NC(=O)[C@H](C)NC(=O)[C@H]([C@@H](C)O)NC(=O)[C@H](CC(N)=O)NC1=O)NC(=O)[C@H](CC(C)(C)C)NC(=O)[C@H](CC(=O)O)NC2=O (stereo partly drawn) [I-2339, Ac-PL3-Asp-Npg-B5-Asn-Thr-Ala-Aib-Phe-Asn-PyrS2-3Thi-BztA-Gln-NH2] |  |
| 2730 | CC(=O)N1CCC[C@]12CC=CCCCC1(CCCC=CCCCOC(=O)N3CC[C@@](C(=O)N[C@@H](Cc4ccccc4)C(=O)N[C@@H](Cc4csc5ccccc45)C(=O)N[C@@H](CCC(N)=O)C(N)=O)(C3)NC(=O)[C@H](CC(C)C)NC(=O)[C@H](Cc3ccccc3)NC(=O)[C@H](C)NC(=O)[C@H](CCCCNC(C)C)NC(=O)[C@H](Cc3cccc(C(N)=O)c3)NC(=O)[C@H](CC(=O)O)NC1=O)NC(=O)[C@H](CC1CCCCC1)NC(=O)[C@H](CC(N)=O)NC2=O (stereo partly drawn) [I-2342, Ac-PL3-Asn-Cha-B5-Asp-3cbmf-iPrLys-Ala-Phe-Leu-PyrS2-Phe-BztA-Gln-NH2] |  |
| 586 | CC(=O)N1CCC[C@]12CC=CCCCC1(CCCC=CCCCOC(=O)N3CC[C@@](C(=O)N[C@@H](Cc4ccccc4)C(=O)N[C@@H](Cc4csc5ccccc45)C(=O)N[C@@H](CCC(N)=O)C(N)=O)(C3)NC(=O)[C@H](CC(C)C)NC(=O)[C@H](Cc3ccccc3)NC(=O)[C@H](C)NC(=O)[C@H](CCCCNC(C)C)NC(=O)[C@H](CCO)NC(=O)[C@H](CC(=O)O)NC1=O)NC(=O)[C@H](CC1CCCCC1)NC(=O)[C@H](CC(N)=O)NC2=O (stereo partly drawn) [I-2344, Ac-PL3-Asn-Cha-B5-Asp-Hse-iPrLys-Ala-Phe-Leu-PyrS2-Phe-BztA-Gln-NH2] |  |
| 1270 | CC(=O)N1CCC[C@]12CC=CCCCC1(CCCC=CCCCOC(=O)N3CC[C@@](C(=O)N[C@@H](Cc4ccccc4)C(=O)N[C@@H](Cc4csc5ccccc45)C(=O)N[C@@H](CCC(N)=O)C(N)=O)(C3)NC(=O)[C@H](CC(C)C)NC(=O)[C@H](Cc3ccccc3)NC(=O)[C@H](C)NC(=O)[C@H](CCCCNC(C)C)NC(=O)[C@H](CCO)NC(=O)[C@H](CC(=O)O)NC1=O)NC(=O)[C@H](CC1CCCCC1)NC(=O)[C@H](CC(N)=O)NC2=O (stereo partly drawn) [I-2345, Ac-PL3-Asn-Cha-B5-Asp-Hse-iPrLys-Ala-Phe-Leu-PyrS2-Phe-BztA-Gln-NH2] |  |
| 422 | CC(=O)N1CCC[C@]12CC=CCCCC1(CCCC=CCCCOC(=O)N3CC[C@@](C(=O)N[C@@H](Cc4ccccc4)C(=O)N[C@@H](Cc4csc5ccccc45)C(=O)N[C@@H](CCC(N)=O)C(N)=O)(C3)NC(=O)[C@H](CC(C)C)NC(=O)[C@H](Cc3ccccc3)NC(=O)[C@H](C)NC(=O)[C@H](CCCCNC(C)C)NC(=O)[C@H](CCCCN)NC(=O)[C@H](CC(=O)O)NC1=O)NC(=O)[C@H](CC1CCCCC1)NC(=O)[C@H](CC(N)=O)NC2=O (stereo partly drawn) [I-2346, Ac-PL3-Asn-Cha-B5-Asp-Lys-iPrLys-Ala-Phe-Leu-PyrS2-Phe-BztA-Gln-NH2] |  |
| 5630 | CC(=O)N1CCC[C@]12CC=CCCCC1(CCCC=CCCCOC(=O)N3CC[C@@](C(=O)N[C@@H](Cc4ccccc4)C(=O)N[C@@H](Cc4csc5ccccc45)C(=O)N[C@@H](CCC(N)=O)C(N)=O)(C3)NC(=O)[C@H](CC(C)C)NC(=O)[C@H](Cc3ccccc3)NC(=O)[C@H](C)NC(=O)[C@H](CCCCNC(C)C)NC(=O)[C@H](CCCCN)NC(=O)[C@H](CC(=O)O)NC1=O)NC(=O)[C@H](CC1CCCCC1)NC(=O)[C@H](CC(N)=O)NC2=O (stereo partly drawn) [I-2347, Ac-PL3-Asn-Cha-B5-Asp-Lys-iPrLys-Ala-Phe-Leu-PyrS2-Phe-BztA-Gln-NH2] |  |
